Data on 2 compounds can be found in patent publication US12611387B2, “Compound and composition for inducing neuroprotection” (REST THERAPEUTICS, priority 2020, dated 2026).

Series [1] has as its system Aβ25-35 oligomer-intoxicated mice. Briefly: Y-maze test, symptomatic treatment. In kind it is in vivo. The settings on record: doses 0.1; 0.3; 1.0; 3 and 10 mg/Kg i.p., symptomatic design. Here is the method:
The test compounds were tested for their ability to decrease the cognitive symptoms of Aβ25-35 oligomer-induced neurodegeneration, i.e. their ability to provide symptomatic anti-amnestic treatment (FIGS. 1A and 1B). In brief, to test the symptomatic effect of the test compounds, they were administered 8 days after the icy injection of the Aβ25-35 oligomers, 30 minutes before the YMT and PAT memory tests were conducted or 30 minutes before the test, but after the training session, in the case of the MWT or ORT (FIG. 1A). […]
The spontaneous alternation test was used to assess spatial working memory (very short-term memory) in rodents. […] The mouse's entries into each arm, including the arm at whose end it was placed, are recorded. […] The number of maximum alternations is thus the total number of entries into each arm minus 2 and the percentage of alternation was calculated according to the formula: % Alt=number of actual alternations/maximum number of alterations×100
The parameters measured included the percentage of alternations (memory index) and the total number of entries into the arms of the maze (exploration index, Maurice et al., 1994, 1996; Meunier et al., 2006, 2013; Villard et al., 2009, 2011). […]

A further series concerns Bax and Bcl-2. Description: Bax and Bcl-2 ELISA in hippocampus, Aβ25-35 oligomer neuroprotection design. It counts as in vivo, mice. The settings on record: 0.3 mg/Kg; for Bax protein levels in the hippocampus: compared to the intoxicated, untreated group (not shown). Here is the method:
The neuroprotective effect of the compounds, i.e. the ability thereof to protect cells from Aβ25-35 oligomer neurotoxicity and neurodegeneration, is also tested (FIG. 10). The test compounds are thus administered on the same day as the injection of the Aβ25-35 oligomers and are continued to be administered on a daily basis up to day 7 after the injection of the oligomers, at which time the mice are subjected to the YMT, PAT, MWT or ORT. The brain's anatomy is analysed and neuronal cells are counted by immunohistochemistry on mice sacrificed at D13. The biochemical analyses for the quantification of markers of oxidative stress and apoptosis were carried out at D16 on a group of mice that had been subjected to the WMT (FIG. 10).
Their brains were removed, and the hippocampi were isolated, weighed and frozen at −80° C. awaiting biochemical analysis.
Interleukin 6 (IL-6), a cytokine inflammatory marker, and the levels of the apoptosis markers Bcl2 and Bax proteins were measured in mouse hippocampi by the ELISA tests listed in Table 1 hereinbelow. Bcl2 is often referred to as an anti-apoptotic marker and Bax as a pro-apoptotic marker. Both hippocampi of 6-8 animals per condition were used. The tissues were homogenised after thawing in cell lysis buffer (1 mL, 3 IS007, Cloud-Clone) and sonicated on ice (2×10 s). After centrifugation (10,000 g, 5 min, 4° C.), the supernatants containing the markers to be measured were aliquoted and stored at −80° C. until the ELISA test was carried out according to the supplier's instructions. The results are expressed in ng of marker per mg of total protein and as a percentage of the control (mice not intoxicated with Aβ25-35 and not treated with the test compounds).
Background: An ELISA detects its analyte on a solid surface through an enzyme-linked reagent.

Series [2] relates to non-intoxicated mice. Briefly: Y-maze, amnestic effect in non-intoxicated mice. It counts as in vivo. The note with it: 10 mg/Kg i.p. On the procedure: The spontaneous alternation test was used to assess spatial working memory (very short-term memory) in rodents. The maze was made of grey opaque polyvinylchloride (PVC). Each arm was 40 cm long, 13 cm high, 3 cm wide at the bottom, and 10 cm wide at the top. The arms converged towards one another at an equal angle between the different arms. In brief, each mouse was placed at the end of one arm and allowed to move freely during an 8 min session. The mouse's entries into each arm, including the arm at whose end it was placed, are recorded. An alternation is defined as the animal's successive entry into three different arms. The number of maximum alternations is thus the total number of entries into each arm minus 2 and the percentage of alternation was calculated according to the formula: % Alt=number of actual alternations/maximum number of alterations×100
The parameters measured included the percentage of alternations (memory index) and the total number of entries into the arms of the maze (exploration index, Maurice et al., 1994, 1996; Meunier et al., 2006, 2013; Villard et al., 2009, 2011). Data from the animals showing extreme behaviour (percentage of alternation <25% or >90%, or a number of entries less than 10) were excluded from the calculations. The attrition rate was routinely 5%. Under normal conditions, a mouse will spontaneously alternate exploring each of the arms. A mouse with impaired memory and/or orientation abilities will have a lower percentage of alternations.
In this experiment, memantine and FENM were administered at a dose of 10 mg/Kg i.p. and the performance of the mice was tested using the passive avoidance test and the Y-maze with non-intoxicated mice.

Series [3] deals with non-intoxicated mice. Description: Passive avoidance test, amnestic effect in non-intoxicated mice. In kind it is in vivo. The settings on record: 10 mg/Kg i.p. The text has this:
(§1) This test measures non-spatial (contextual) long-term memory. The apparatus used for this test was a box with two compartments (15×20×15 cm high), one illuminated with white PVC walls and the other in the dark with black PVC walls and a grid floor. A guillotine door separated the compartments. A 60 W lamp was positioned 40 cm above the box and illuminated the white compartment. Electric shocks (0.3 mA for 3 s) could be delivered to the grid floor using a generator (Lafayette Instruments, Lafayette, USA). The test comprised a training session and a test session. The guillotine door was closed during the training session. Each mouse was placed in the white compartment. After 5 seconds, the door was raised. When the mouse entered the darkened compartment and placed all four feet in contact with the grid floor, the door was closed and the electric shocks were delivered for 3 seconds. The time taken by the mouse to re-enter the darkened compartment (STL-Tg) and the number of vocalizations were recorded. The test session was conducted 24 hours after the training session. Each mouse was placed back into the illuminated white compartment. After 5 s the door was raised, the step-through latency (STL-R), i.e. the time it took the mouse to enter the darkened compartment, was measured. The maximum duration was 300 s. Mice with a STL-Tg>30 s or a STL-Tg and a STL-R<10 s were not considered for the test. […]

For series [4], the system named is Aβ25-35 oligomer-intoxicated mice. Description: Passive avoidance test, symptomatic treatment. It counts as in vivo. The settings on record: symptomatic design; for improvement in cognitive impairment in the passive avoidance test, effective doses: doses 0.1, 0.3, 1.0, 3 and 10 mg/Kg i.p.; for aggravating effect on amnestic symptoms in the passive avoidance test: intoxicated mice, memantine at 10 mg/Kg. Here is the method:
The test compounds were tested for their ability to decrease the cognitive symptoms of Aβ25-35 oligomer-induced neurodegeneration, i.e. their ability to provide symptomatic anti-amnestic treatment (FIGS. 1A and 1B). In brief, to test the symptomatic effect of the test compounds, they were administered 8 days after the icy injection of the Aβ25-35 oligomers, 30 minutes before the YMT and PAT memory tests were conducted or 30 minutes before the test, but after the training session, in the case of the MWT or ORT (FIG. 1A). The Hamlet Test® (FIG. 1B) involves a 2-week training session (4 hr/day) followed by a test (max. 10 min) under water deprivation conditions and under normal conditions; the Aβ25-35 peptide is injected after this first test. After one week, the compounds are administered and a second test under water deprivation conditions and under normal conditions is performed 30 min after injection. This test measures spatial-temporal disorientation, a major warning sign in Alzheimer's disease (Crouzier et al., 2018).
as §1, with “test. The attrition rate was routinely 5% (Meunier et al., 2006, 2013; Villard et al., 2009, 2011). A mouse with impaired memory abilities will have a lower STL-R than a mouse with normal abilities.” for “test.”

As to `NC12CC3CC(C1)CC(CCF)(C3)C2` [FENM, 3-(2-fluoroethyl)adamantan-1-amine], the “restoring Alt % in the Y-maze test, effective doses” value in series [1] is recorded as “effective at all doses tested from 0.1 mg/Kg”. In the series with Bax and Bcl-2, the “Bax/Bcl-2 ratio in the hippocampus” value is reported as “significantly decreased the Bax/BcI-2 ratio” and the “Bax protein levels in the hippocampus” value was “significantly reduced”. Also, in the series on non-intoxicated mice [2], the “Alternation (%)” value is 63.7 ± 4.2% and the Number of entries is listed as 32.7 ± 3.4. The “Latency” value with non-intoxicated mice [3] is reported as 183.0 ± 38.4 s. Moreover, in series [4], the “improvement in cognitive impairment in the passive avoidance test, effective doses” value is “effective at 0.1; 0.3 and 1 mg/Kg”; the “aggravating effect on amnestic symptoms in the passive avoidance test” value is “does not exert an aggravating effect on amnestic symptoms”.
As for `CC12CC3CC(C)(C1)CC(N)(C3)C2` [memantine, 3,5-Dimethyl-1-adamantanamine, reference compound], the “restoring Alt % in the Y-maze test, effective doses” value in series [1] is given as “only effective at 0.3 mg/Kg”. For the same compound, the “Bax protein levels in the hippocampus” value with Bax and Bcl-2 was “significantly reduced”. Besides, in the series on non-intoxicated mice [2], the “Alternation (%)” value was 48.8 ± 3.0 % and the Number of entries stood at 28.2 ± 2.9. The “Latency” value in the series with non-intoxicated mice [3] worked out at 56.0 ± 31.1 s. In series [4], the “improvement in cognitive impairment in the passive avoidance test, effective doses” value is “significant improvement in cognitive impairment by memantine was observed at the 0.3 mg/Kg memantine dose only” and the “aggravating effect on amnestic symptoms in the passive avoidance test” value is on record as “worsens the cognitive symptoms of intoxicated mice when injected at 10 mg/Kg”.
